The values that follow come from paper PMC13124246 (European journal of medicinal chemistry, 2022).

Data set [1] deals with Mouse myoblasts cell line C2C12. The data set can be described thus: Host cell cytotoxicity. Format: cell-based. The note with it: mouse myoblasts vs T. cruzi, compounds tested up to 10 μM.
Data set [2] has as its target cruzain (Trypanosoma cruzi, UniProt P25779). Briefly: Cruzain enzymatic inhibition assay. Format: biochemical. The note with it: for competitive behavior against cruzain: compound at 1 and 0.25 μM, substrate 0.156–10 μM.
In data set [3] the target is T1, TbrCatL (Trypanosoma brucei rhodesiense, UniProt Q95PM0). Format: biochemical, T. brucei.
Data set [4] concerns the target T1, TbrCatL. To be noted: read-out: IC50 TbrCatL; cited from earlier work.
Data set [5] deals with cathepsins S (human). To be noted: human enzyme; cited from earlier work.
Data set [6] has as its system cathepsins B (rat). To be noted: rat enzyme; cited from earlier work.
Data set [7] has as its system T. cruzi Y strain parasites. The note with it: in vitro; cited from earlier work.
Data set [8] has as its system macrophages. The note with it: cited from earlier work.
Data set [9] deals with cruzain or TbrCatL. Briefly: Screening of the Krake et al. compound set against cruzain and TbrCatL. Format: biochemical. The note with it: 100 μM.

Counter-ions that a name gives are not always drawn.

Chain of cruzain (P25779 123-337 limits assumed): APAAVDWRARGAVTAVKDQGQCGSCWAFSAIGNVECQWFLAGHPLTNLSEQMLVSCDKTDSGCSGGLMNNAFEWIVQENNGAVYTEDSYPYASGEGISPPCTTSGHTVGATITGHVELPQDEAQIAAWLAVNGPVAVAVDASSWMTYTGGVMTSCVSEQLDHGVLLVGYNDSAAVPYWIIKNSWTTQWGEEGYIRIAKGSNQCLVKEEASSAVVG

`Clc1cc(Br)ccc1-c1ccc(CNCCN2CCOCC2)o1` [Compound 39, N-((5-(4-bromo-2-chlorophenyl)furan-2-yl)methyl)-2-morpholinoethan-1-amine dihydrochloride]: the “SI: selectivity index determined as CC50/EC50” value (“SI: selectivity index” for short) in data set [1] was more than 17.

Turning to `N/C(S)=N/N=C/c1ccc(-c2ccc(Cl)cc2)o1` [Compound 44, 2-((5-(4-chlorophenyl)furan-2-yl)methylene)hydrazine-1-carbothioamide], the “IC50 against cruzain relative to IC50 against TbrCatL (fold higher)” value in data set [2] (Table 2 values) is recorded as “up to 25 fold”. Besides, in [2], the “competitive behavior against cruzain” value is given as “did not observe competitive behavior”. Moreover, in data set [1], the “SI: selectivity index” value is listed as more than 18. Besides, in [3], the “effect of 0.1% Triton X-100 on IC50 against TbrCatL” value is given as “reduced the compounds’ potencies”.

For `Clc1cc(Br)ccc1-c1ccc(CNCC2CCNCC2)o1` [MB12, 1-(5-(4-bromo-2-chlorophenyl)furan-2-yl)-N-(piperidin-4-ylmethyl)methanamine], in data set [4], the IC50 is 50 µM. Besides, the “inhibition of cathepsin S” value in [5] is on record as “did not inhibit”. In addition, in data set [6], the “inhibition of cathepsin B” value is “did not inhibit”. Further, the “replication of T. cruzi Y strain parasites and release from macrophages” value in [7] is reported as “decreased the replication”. Further, in data set [8], the “cytotoxicity by lactate dehydrogenase release” value is reported as “no significant cytotoxicity”.

As for `CN(C)CCCNCc1ccc(-c2ccc(Cl)cc2Cl)o1` [Compound 9], in data set [9], the “average inhibition against cruzain or TbrCatL” value was “greater than 70%”.

Consider `O=C(Cn1ccnc1[N+](=O)[O-])NCc1ccccc1` [Benznidazole], for which the “SI: selectivity index” value in data set [1] is listed as more than 9.

As for `CN(C)CCCNCc1ccc(-c2ccc(Br)cc2)o1` [Compound 12], in data set [9], the “average inhibition against cruzain or TbrCatL” value is listed as “greater than 70%”.

In the case of `NC(=S)N/N=C/c1ccc(-c2ccc(Br)cc2Cl)o1` [Compound 45, 2-((5-(4-bromo-2-chlorophenyl)furan-2-yl)methylene)hydrazine-1-carbothioamide], the “competitive behavior against cruzain” value in [2] was “did not observe competitive behavior”. Further, the “SI: selectivity index” value in data set [1] was more than 370. In addition, the “effect of 0.1% Triton X-100 on IC50 against TbrCatL” value in data set [3] is “reduced the compounds’ potencies”.

For orientation: IC50 means the concentration that inhibits the measured activity by half.
